The values below come from patent publication US20050215520A1, “Complex of organic medicines and beta-cyclodextrin derivatives and its preparing process” (priority 2002, published 2005).

This data set is described as follows: Critical mole ratio or critical mass ratio of medicines and beta-cyclodextrin derivative (Table 1, examples). The data set is classed as physicochemical. As for the experimental part: The critical mole ratio or critical mass ratio in the present invention refers to the mole ratio and mass ratio when complex of organic medicine and beta-cyclodextrin derivatives prepared with the method of this invention is dissolved exactly in water of specified amount to form stable aqueous solution.
The critical value of organic medicine and beta-cyclodextrin derivatives in the present invention, may be determined with the undermentioned unit test method.
All kinds of mole ratio and mass ratio of the medicine and beta-cyclodextrin derivative is made into complex with expanding loose body according to the method of the present invention, then the set water is added into the a variety of compounding ratio of complex, and by observing properties of the solution, the compounding ratio of exactly dissolving in water and with stable property, acts as the critical mole ratio or critical mass ratio of the present invention.
The critical mole ratio and critical mass ratio in the present invention may be determined with the undermentioned saturated solution method.
Weighing accurately medicine, and placing in the container, and gradually adding beta-cyclodextrin aqueous solution metered accurately with agitation, until the medicine is dissolved exactly and completely in this aqueous solution. Calculate both mass number here and convert it to mole number. Repeat the above-mentioned test, and get the mean mole number of repeated test, and calculate critical mole ratio with the undermentioned formula: Critical mole ratio of medicine=mean mole number of beta-cyclodextrin/mean mole number of medicine

Where [1] appears, read: beta-cyclodextrin derivative (hydroxide propyl beta-cyclodextrin in the examples) to medicine, complex dissolves exactly in water to stable solution.

Where two headings read alike, the source gives them in different places.

In the case of `CC1(C)S[C@@H]2[C@H](NC(=O)[C@H](N)c3ccccc3)C(=O)N2[C@H]1C(=O)O` [Ampicilline], the “Critical value mole ratio” value under setting [1] is 3.

On to `CC[C@H]1OC(=O)[C@H](C)[C@@H](O[C@H]2C[C@@](C)(OC)[C@@H](O)[C@H](C)O2)[C@H](C)[C@@H](O[C@@H]2O[C@H](C)C[C@H](N(C)C)[C@H]2O)[C@](C)(O)C[C@@H](C)CN(C)[C@H](C)[C@@H](O)[C@]1(C)O` [Azithromycin], for which the “Critical value mole ratio” value under setting [1] amounted to 16.

With `CN(Cc1cc(Br)cc(Br)c1N)C1CCCCC1` [Bromhexine], the “Critical value mole ratio” value under setting [1] is listed as 3.

`CS(=O)(=O)OCCCCOS(C)(=O)=O` [Busulfan]: the “Critical value mole ratio” value under setting [1] turned out to be 5.

As for `O=C(O)c1cn(C2CC2)c2cc(N3CCNCC3)c(F)cc2c1=O` [Ciprofloxacin], the “Critical value mole ratio” value under setting [1] was 5.

Take `CC[C@H]1OC(=O)[C@H](C)[C@@H](O[C@H]2C[C@@](C)(OC)[C@@H](O)[C@H](C)O2)[C@H](C)[C@@H](O[C@@H]2O[C@H](C)C[C@H](N(C)C)[C@H]2O)[C@](C)(OC)C[C@@H](C)C(=O)[C@H](C)[C@@H](O)[C@]1(C)O` [Clarithromycin]: the “Critical value mole ratio” value under setting [1] was determined as 18.

Take `Clc1ccccc1C(c1ccccc1)(c1ccccc1)n1ccnc1` [Clotrimazole]: the “Critical value mole ratio” value under setting [1] is reported as 4.

Take `CN1C(=O)CN=C(c2ccccc2)c2cc(Cl)ccc21` [Diazepam]: the “Critical value mole ratio” value came out at 3.

Take `CC(CN1c2ccccc2S(=O)(=O)c2ccccc21)N(C)C` (centres unmarked) [Dioxopromethazine]: under setting [1], the “Critical value Mass ratio” value was found to be 2.

In the case of `CC[C@H]1OC(=O)[C@H](C)[C@@H](O[C@H]2C[C@@](C)(OC)[C@@H](O)[C@H](C)O2)[C@H](C)[C@@H](O[C@@H]2O[C@H](C)C[C@H](N(C)C)[C@H]2O)[C@](C)(O)C[C@@H](C)C(=O)[C@H](C)[C@@H](O)[C@]1(C)O` [Erythromycin], the “Critical value mole ratio” value under setting [1] came out at 6.

`Clc1ccc2c(c1)C(c1ccccc1)=NCc1nncn1-2` [Estazolam]: the “Critical value Mass ratio” value under setting [1] amounted to 20.

Regarding `COc1cc([C@@H]2c3cc4c(cc3[C@@H](O[C@@H]3O[C@@H]5CO[C@@H](C)O[C@H]5[C@H](O)[C@H]3O)[C@H]3COC(=O)[C@H]23)OCO4)cc(OC)c1O` [Etoposide], under setting [1], the “Critical value mole ratio” value turned out to be 10.

With `CC(C)Cc1ccc(C(C)C(=O)O)cc1` (centres unmarked) [Ibuprofen], the “Critical value Mass ratio” value under setting [1] is 8.

`CC(=O)N1CCN(c2ccc(OCC3COC(Cn4ccnc4)(c4ccc(Cl)cc4Cl)O3)cc2)CC1` (centres unmarked) [Ketoconazole]: under setting [1], the “Critical value mole ratio” value is reported as 3.

With `CCN1C[C@]2(OC(=O)c3ccccc3NC(C)=O)CC[C@H](OC)[C@@]34[C@@H]2C[C@@H]([C@@H]13)[C@@]1(O)C[C@H](OC)[C@H]2C[C@@H]4[C@]1(O)[C@H]2OC` [Lappaconitine], under setting [1], the “Critical value mole ratio” value is listed as 2.

Consider `O=C1Nc2ccc(Cl)cc2C(c2ccccc2Cl)=NC1O` (centres unmarked) [Lorazepam], for which the “Critical value mole ratio” value under setting [1] is recorded as 3.

Regarding `CC[C@H](C)C(=O)O[C@H]1C[C@@H](C)C=C2C=C[C@H](C)[C@H](CC[C@@H]3C[C@@H](O)CC(=O)O3)[C@H]21` [Lovastatin], the “Critical value mole ratio” value under setting [1] was 26.

For `Cc1ncc([N+](=O)[O-])n1CCO` [Metronidazole], the “Critical value Mass ratio” value under setting [1] came to 9.

For `Clc1ccc(COC(Cn2ccnc2)c2ccc(Cl)cc2Cl)c(Cl)c1` (centres unmarked) [Miconazole], the “Critical value mole ratio” value under setting [1] turned out to be 6.

Regarding `CN1C(C(=O)Nc2ccccn2)=C(O)c2ccccc2S1(=O)=O` [Piroxicam], the “Critical value Mass ratio” value under setting [1] is 15.

Take `C[C@]12CC[C@H](O)CC1=CC[C@@H]1[C@@H]2CC[C@]2(C)C(=O)CC[C@@H]12` [Prasterone]: the “Critical value mole ratio” value under setting [1] came to 3.

With `COc1cc2c(cc1OC)[C@@H]1Cc3ccc(OC)c(OC)c3CN1CC2` [Rotundine], the “Critical value mole ratio” value under setting [1] is reported as 1.

As to `CC[C@H]1OC(=O)[C@H](C)[C@@H](O[C@H]2C[C@@](C)(OC)[C@@H](O)[C@H](C)O2)[C@H](C)[C@@H](O[C@@H]2O[C@H](C)C[C@H](N(C)C)[C@H]2O)[C@](C)(O)C[C@@H](C)/C(=N\OCOCCOC)[C@H](C)[C@@H](O)[C@]1(C)O` [Roxithromycin], the “Critical value mole ratio” value under setting [1] was 18.
